Counter-ions that a name gives are not always drawn. Like-named read-outs stand apart in the source and are kept apart here.

The IC50 is the concentration that gives 50% inhibition.

In experiment [1] the test system is Phosphorylated eIF4E. The experiment in a line: peIF4E Signaling Cellular Assay (CisBio peIF4E HTRF). Type of experiment: cell-based. The note with it: cells incubated with compound for 2 hrs at 37° C. The method, then:
Phosphorylated eIF4E is assayed using the CisBio peIF4E HTRF® assay kit (CisBio, catalogue No. 64EF4PEG). Cells are plated in 96-well tissue-culture treated plate in appropriate growth medium (90 μL). Compounds (10×) are diluted using 3-fold serial dilutions in cell culture medium and added to cells. Plates are incubated for 2 hrs at 37° C. The cell supernatant is carefully removed either by aspirating supernatant or by flicking the plate. Immediately 50 μL of supplemented lysis buffer (IX) is added and incubated for at least 30 minutes at room temperature under shaking. After homogenization by pipetting up and down, 16 μL of cell lysate is transferred from the 96-well cell-culture plate to a 384-well small volume white plate, 4 μL of premixed antibody solutions (vol/vol) is prepared in the detection buffer and added. The plate is covered with a plate sealer and incubated overnight at room temperature. The fluorescence emissions at two different wavelengths are read (665 nm and 620 nm) on a Wallac Victor2. Emission ratios are converted into percent inhibitions and imported into GraphPad Prism software. […] IC50 values are determined using a nonlinear regression model available in GraphPad Prism 5.
To this end, IC50 values of less than 0.05 μM are labeled as “+++”, from 0.05 to 1.0 μM are labeled as “++”, greater than 1.0 to 100 μM are labeled as “+”, and NA means “not available”.

The target in experiment [2] is recombinant MNK2 (Homo sapiens (Human), UniProt Q9HBH9). Briefly: MNK Biochemical Enzymatic Assay (ADP-Glo kinase assay), MNK2. How it is done: Compounds are screened for MNK inhibition using the ADP-Glo kinase assay kit (Promega, catalogue No. V9101). All kinase reactions are performed in Reaction Buffer E (15 mM HEPES pH7.4, 20 mM NaCl, 1 mM EGTA, 10 mM MgCl2, 0.1 mg/ml BGG, and 0.02% Tween-20). […] Final DMSO concentration in each reaction is 1%.
recombinant MNK2, sequence (Q9HBH9 whole entry): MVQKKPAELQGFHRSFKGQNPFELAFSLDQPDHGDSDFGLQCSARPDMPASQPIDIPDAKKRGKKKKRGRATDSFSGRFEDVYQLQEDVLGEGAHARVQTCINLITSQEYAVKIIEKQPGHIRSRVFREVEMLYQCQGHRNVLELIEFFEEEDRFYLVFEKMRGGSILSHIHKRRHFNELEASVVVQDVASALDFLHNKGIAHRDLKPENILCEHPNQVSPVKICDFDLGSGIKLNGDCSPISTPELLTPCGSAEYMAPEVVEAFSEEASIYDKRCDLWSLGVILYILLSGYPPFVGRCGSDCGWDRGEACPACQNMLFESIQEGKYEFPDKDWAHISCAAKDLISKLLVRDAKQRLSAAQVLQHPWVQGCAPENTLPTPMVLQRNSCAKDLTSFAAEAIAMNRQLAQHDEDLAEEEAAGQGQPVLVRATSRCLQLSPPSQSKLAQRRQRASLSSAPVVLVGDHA
(§1) Kinase reactions are carried out in 96-well half-area white flat-bottom polystyrene plates in a final volume of 25 μl. MNK1/2 enzymes are pre-incubated with compound and peptide substrate for 5 minutes prior to the addition of ATP. After the addition of ATP, kinase reactions are incubated at room temperature for 40 minutes. Reactions are subsequently stopped by the addition of 25 μl of ADP-Glo Reagent and incubating for an additional 40 minutes. The final luminescent signal used for kinase activity readout is produced by the addition of 45 μl of Kinase Detection Reagent (ADP-Glo kit, Promega) and incubating for 40 minutes. The luminescent signal is detected using a Victor 2 multilabel counter (Perkin Elmer) and the concentration of compound necessary to achieve inhibition of enzyme activity by 50% (IC50) is calculated using signals from an 8-point compound dilution series.

For experiment [3], the target named is recombinant MNK1 (Homo sapiens (Human), UniProt Q9BUB5). Briefly: MNK Biochemical Enzymatic Assay (ADP-Glo kinase assay), MNK1. Conditions: 10 nM recombinant MNK1, 300 μM ATP. How it is done:
Compounds are screened for MNK inhibition using the ADP-Glo kinase assay kit (Promega, catalogue No. V9101). All kinase reactions are performed in Reaction Buffer E (15 mM HEPES pH7.4, 20 mM NaCl, 1 mM EGTA, 10 mM MgCl2, 0.1 mg/ml BGG, and 0.02% Tween-20). Final MNK 1 reactions contained 10 nM recombinant MNK1 (Life Technologies, PR9138A), 100 μM MNK substrate peptide Ac-TATKSGSTTKNR-NH2 (American Peptide Company), 300 μM ATP, and varying concentrations of the inhibitory compound of interest. Final MNK2 reactions contained 3 nM recombinant MNK2 (Life Technologies, PV5607), 50 μM MNK substrate peptide Ac-TATKSGSTTKNR-NH2 (American Peptide Company), 10 μM ATP, and varying concentrations of the inhibitory compound of interest. Final DMSO concentration in each reaction is 1%.
as §1
To this end, IC50 values of less than 0.01 μM are labeled as “+++”, from 0.01 to 0.1 μM are labeled as “++”, and greater than 0.1 to 10.0 μM are labeled as “+” (NA means “not available”).
(ADP-Glo turns the ADP formed in a reaction into a luminescent signal.)

[4] abbreviates: 3 nM recombinant MNK2, 10 μM ATP, read-out: IC50 Mnk2.

recombinant MNK1, sequence (Q9BUB5 whole entry): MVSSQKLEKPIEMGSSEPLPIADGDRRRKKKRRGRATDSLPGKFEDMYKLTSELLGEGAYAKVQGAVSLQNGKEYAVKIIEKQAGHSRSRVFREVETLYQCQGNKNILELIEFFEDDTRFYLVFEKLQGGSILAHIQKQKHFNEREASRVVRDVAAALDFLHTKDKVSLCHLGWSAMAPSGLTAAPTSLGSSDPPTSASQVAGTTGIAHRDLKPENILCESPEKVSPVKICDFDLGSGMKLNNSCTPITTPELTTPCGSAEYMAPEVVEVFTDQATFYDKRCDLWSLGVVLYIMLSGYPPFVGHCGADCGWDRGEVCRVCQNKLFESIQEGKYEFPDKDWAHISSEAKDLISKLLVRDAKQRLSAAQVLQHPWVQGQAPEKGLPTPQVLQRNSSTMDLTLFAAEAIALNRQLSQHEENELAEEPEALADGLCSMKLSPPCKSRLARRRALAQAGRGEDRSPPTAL

Take `O=C1NCc2cc(-n3ccc4cncnc43)ccc21` [Cpd. No. 1, 5-(7H-pyrrolo[2,3-d]pyrimidin-7-yl)isoindolin-1-one]: the IC50 in experiment [1] is 1000 to 100000 nM; in experiment [2], 100 to 10000 nM; in experiment [3] it was 100 to 10000 nM.

On to `CC1NC(=O)c2ccc(-n3ccc4cncnc43)cc21` (stereo not drawn) [Cpd. No. 2, 3-methyl-5-(7H-pyrrolo[2,3-d]pyrimidin-7-yl)isoindolin-1-one], for which the IC50 in experiment [2] fell in the range of 100 to 10000 nM. Turning to `CC1NC(=O)c2ccc(N3CCc4cncnc43)cc21` (stereo not drawn) [Cpd. No. 3, 3-methyl-5-(5H-pyrrolo[2,3-d]pyrimidin-7(6H)-yl)isoindolin-1-one], the 50% inhibitory concentration (IC50) in experiment [1] lay within 1000 to 100000 nM; in experiment [2], 100 to 10000 nM. For `O=C1NCc2cc(-n3ncc4cnccc43)ccc21` [Cpd. No. 4, 5-(1H-pyrazolo[4,3-c]pyridin-1-yl)isoindolin-1-one], the half-inhibitory concentration (IC50) in experiment [2] fell in the range of 100 to 10000 nM.

As for `O=C1NCc2nc(-n3ccc4cnccc43)ccc21` [Cpd. No. 5, 2-(1H-pyrrolo[3,2-c]pyridin-1-yl)-6,7-dihydro-5H-pyrrolo[3,4-b]pyridin-5-one], in experiment [2], the IC50 was in the range of 100 to 10000 nM. As for `c1cc2cc(-n3ccc4cncnc43)ccc2cn1` [Cpd. No. 6, 6-(7H-pyrrolo[2,3-d]pyrimidin-7-yl)isoquinoline], the results for the IC50 in experiment [1] and in experiment [2] were 1000 to 100000 nM and 100 to 10000 nM, respectively. As for `Cc1ncnc2c1ccn2-c1ccc2c(c1)CNC2=O` [Cpd. No. 7, 5-(4-methyl-7H-pyrrolo[2,3-d]pyrimidin-7-yl) isoindolin-1-one], the concentration for half-maximal inhibition (IC50) in experiment [2] lay within 100 to 10000 nM. Take `Cn1cc(-c2cn(-c3ccc4c(c3)CNC4=O)c3ncncc23)cn1` [Cpd. No. 8, 5-(5-(1-methyl-1H-pyrazol-4-yl)-7H-pyrrolo[2,3-d]pyrimidin-7-yl)isoindolin-1-one]: the half-inhibitory concentration (IC50) lay in the range of 1000 to 100000 nM in experiment [1], 10 to 100 nM in experiment [2] and 10 to 100 nM in experiment [3]. Take `O=C1NCc2cc(-n3ccc4cnccc43)ncc21` [Cpd. No. 11, 6-(1H-pyrrolo[3,2-c]pyridin-1-yl)-1H-pyrrolo[3,4-c]pyridin-3(2H)-one]: the IC50 in experiment [1] is 1000 to 100000 nM; in experiment [2] it was 100 to 10000 nM. For the compound `Nc1ncnc2c1ccn2-c1ccc2c(c1)CNC2=O` [Cpd. No. 12, 5-(4-amino-7H-pyrrolo [2,3-d]pyrimidin-7-yl) isoindolin-1-one], the IC50 in experiment [2] lay in the range of 100 to 10000 nM. For `c1ncc2ccn(-c3ccc4c(c3)CSC4)c2n1` [Cpd. No. 13, 7-(1,3-dihydrobenzo[c]thiophen-5-yl)-7H-pyrrolo[2,3-d]pyrimidine], the half-inhibitory concentration (IC50) in experiment [2] was in the range of 100 to 10000 nM. Same read-out and setting: as for `O=C1NCc2nc(-n3ccc4cnccc43)ncc21` [Cpd. No. 14, 2-(1H-pyrrolo[3,2-c]pyridin-1-yl)-6,7-dihydro-5H-pyrrolo[3,4-d]pyrimidin-5-one], the figure is 100 to 10000 nM.

With `O=C1NCc2cc(-n3cnc4cncnc43)ccc21` [Cpd. No. 16, 5-(9H-purin-9-yl) isoindolin-1-one], the IC50 in experiment [2] is 100 to 10000 nM.

Regarding `CC1NC(=O)c2c(Cl)cc(-n3ccc4cncnc43)cc21` (stereo not drawn) [Cpd. No. 17, 7-chloro-3-methyl-5-(7H-pyrrolo [2,3-d]pyrimidin-7-yl) isoindolin-1-one], the IC50 was 50 to 1000 nM in experiment [1], 10 to 100 nM in experiment [2] and under 10 nM in experiment [3]. For the compound `CC1(C)NC(=O)c2c(Cl)cc(-n3ccc4cncnc43)cc21` [Cpd. No. 18, 7-chloro-3,3-dimethyl-5-(7H-pyrrolo [2,3-d]pyrimidin-7-yl) isoindolin-1-one], the IC50 is 50 to 1000 nM in experiment [1], under 10 nM in experiment [2] (setting [4]) and under 10 nM in experiment [3]. Take `O=C1NCc2cc(-n3cc(-c4ccncc4)c4cncnc43)ccc21` [Cpd. No. 19, 5-(5-(pyridin-4-yl)-7H-pyrrolo[2,3-d]pyrimidin-7-yl)isoindolin-1-one]: in experiment [2], the IC50 fell in the range of 100 to 10000 nM. On to `COC(=O)NCC1NC(=O)c2ccc(-n3ccc4cncnc43)cc21` (stereo not drawn) [Cpd. No. 20, methyl ((3-oxo-6-(7H-pyrrolo[2,3-d]pyrimidin-7-yl)isoindolin-1-yl)methyl)carbamate], for which the IC50 in experiment [2] was in the range of 100 to 10000 nM. On to `NCC1NC(=O)c2ccc(-n3ccc4cncnc43)cc21` (stereo not drawn) [Cpd. No. 21, 3-(aminomethyl)-5-(7H-pyrrolo[2,3-d]pyrimidin-7-yl)isoindolin-1-one hydrochloride], for which the IC50 in experiment [2] lay in the range of 100 to 10000 nM. On the same count and under the same terms, as for `O=C1NCc2cc(-n3ccc4cncnc43)cc(F)c21` [Cpd. No. 23, 7-fluoro-5-(7H-pyrrolo [2,3-d]pyrimidin-7-yl) isoindolin-1-one], the figure is 100 to 10000 nM. Take `O=C1NCc2cc(-n3cc(-c4ccccc4Cl)c4cncnc43)ccc21` [Cpd. No. 24, 5-(5-(2-chlorophenyl)-7H-pyrrolo [2,3-d]pyrimidin-7-yl) isoindolin-1-one]: in experiment [2], the IC50 lay within 100 to 10000 nM. The same measure, in the same setting: with `O=C1NCc2cc(-n3cc(-c4cscn4)c4cncnc43)ccc21` [Cpd. No. 25, 5-(5-(thiazol-4-yl)-7H-pyrrolo[2,3-d]pyrimidin-7-yl)isoindolin-1-one] the figure was 100 to 10000 nM.

As for `N#Cc1ccccc1-c1cn(-c2ccc3c(c2)CNC3=O)c2ncncc12` [Cpd. No. 26, 2-(7-(1-oxoisoindolin-5-yl)-7H-pyrrolo[2,3-d]pyrimidin-5-yl)benzonitrile], the concentration for half-maximal inhibition (IC50) in experiment [2] fell in the range of 100 to 10000 nM.

Turning to `O=C1NC2(CCCC2)c2cc(-n3ccc4cncnc43)cc(Cl)c21` [Cpd. No. 27, 4′-chloro-6′-(7H-pyrrolo[2,3-d]pyrimidin-7-yl)spiro[cyclopentane-1,1′-isoindolin]-3′-one], the IC50 was 50 to 1000 nM in experiment [1] and under 10 nM in experiment [2] (setting [4]). The like results for `Nc1ncnc2c1ccn2-c1cc(Cl)c2c(c1)C1(CCCCC1)NC2=O` [Cpd. No. 28, 6′-(4-amino-7H-pyrrolo[2,3-d]pyrimidin-7-yl)-4′-chlorospiro[cyclohexane-1,1′-isoindolin]-3′-one] were, in that order, under 50 nM and under 10 nM. On to `O=C1NC2(CCCCC2)c2cc(-n3ccc4cncnc43)cc(Cl)c21` [Cpd. No. 29, 4′-chloro-6′-(7H-pyrrolo[2,3-d]pyrimidin-7-yl)spiro[cyclohexane-1,1′-isoindolin]-3′-one], for which the IC50 is under 50 nM in experiment [1] and 10 to 100 nM in experiment [2]. As for `Nc1ncnc2c1ccn2-c1cc(Cl)c2c(c1)C1(CCCC1)NC2=O` [Cpd. No. 30, 6′-(4-amino-7H-pyrrolo[2,3-d]pyrimidin-7-yl)-4′-chlorospiro[cyclopentane-1,1′-isoindolin]-3′-one], the results for the IC50 in experiment [1] and in experiment [2] (setting [4]) were under 50 nM and under 10 nM, respectively.

On to `Cc1cc(-n2ccc3c(N)ncnc32)cc2c1C(=O)NC21CCN(C)CC1` [Cpd. No. 31, 6-(4-amino-7H-pyrrolo [2,3-d]pyrimidin-7-yl)-1′,4-dimethylspiro[isoindoline-1,4′-piperidin]-3-one], for which the concentration for half-maximal inhibition (IC50) in experiment [1] was in the range of 50 to 1000 nM.

As to `O=C1NCc2nc(-n3ccc4cncnc43)ccc21` [Cpd. No. 32, 2-(7H-pyrrolo[2,3-d]pyrimidin-7-yl)-6,7-dihydro-5H-pyrrolo[3,4-b]pyridin-5-one], in experiment [1], the IC50 lay in the range of 50 to 1000 nM.

For the compound `Cc1cc(-n2ccc3c(N)ncnc32)cc2c1C(=O)NC21CCN(CC(F)F)CC1` [Cpd. No. 33, 6-(4-amino-7H-pyrrolo[2,3-d]pyrimidin-7-yl)-1′-(2,2-difluoroethyl)-4-methylspiro[isoindoline-1,4′-piperidin]-3-one], the IC50 in experiment [1] lay within 50 to 1000 nM. For the compound `Cc1cc(-n2ccc3c(N)ncnc32)nc2c1C(=O)NC21CCCCC1` [Cpd. No. 34, 2′-(4-amino-7H-pyrrolo[2,3-d]pyrimidin-7-yl)-4′-methylspiro[cyclohexane-1,7′-pyrrolo[3,4-b]pyridin]-5′(6′H)-one], in experiment [1], the IC50 is under 50 nM.

The values are drawn from patent US11014926B2, “Pyrrolo-, pyrazolo-, imidazo-pyrimidine and pyridine compounds that inhibit MNK1 and MNK2” (EFFECTOR THERAPEUTICS, INC., priority 2015, dated 2021).
